Experimental data: PubChem BioAssay (NCI)
Several values for one entry are separate records, joined by “and”; a condition that tells them apart may be missing. Identical values can stand only once.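 The compound was tested at five concentrations on cells cultured in 96-well plates, with a 48-hour exposure period. GI50: concentration for 50% inhibition of growth. TGI denotes the concentration required for complete inhibition of growth.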

How the values were obtained:
Assay in all cases: NCI tumour cell line growth inhibition, 48 h
M19-MEL melanoma = system: M19-MEL melanoma
SNB-78 CNS = system: SNB-78 CNS
DMS 114 small cell lung = system: DMS 114 small cell lung
LXFL 529 NSCLC = system: LXFL 529 NSCLC
HOP-18 NSCLC = system: HOP-18 NSCLC
DMS 273 small cell lung = system: DMS 273 small cell lung
XF 498 CNS = system: XF 498 CNS
DLD-1 colon = system: DLD-1 colon
P388 leukemia = system: P388 leukemia
P388/ADR leukemia = system: P388/ADR leukemia
SN12K1 renal = system: SN12K1 renal
RXF-631 renal = system: RXF-631 renal

## FC(F)(F)C1(C(F)(F)F)O[SiH]2(OC(C(F)(F)F)(C(F)(F)F)c3ccccc32)c2ccccc21
M19-MEL melanoma
  TGI: 39.4 µM
SNB-78 CNS
  TGI: 52.8 µM
DMS 114 small cell lung
  TGI: 29.1 µM
LXFL 529 NSCLC
  TGI: 38.5 µM
HOP-18 NSCLC
  TGI: 75.1 µM
DMS 273 small cell lung
  TGI: 53.2 µM

## C=CCCCCCC(O)C(O)C/C=C\C/C=C\CC (stereo unspecified)
SNB-78 CNS
  TGI: > 18.8 µM
DMS 114 small cell lung
  TGI: > 18.8 µM
LXFL 529 NSCLC
  TGI: > 18.8 µM
XF 498 CNS
  TGI: > 18.8 µM
HOP-18 NSCLC
  TGI: > 18.8 µM
DLD-1 colon
  TGI: > 18.8 µM
DMS 273 small cell lung
  TGI: > 18.8 µM

## Nc1nc(Cl)cc(NCCCCCCCCCCCCNc2cc(Cl)nc(N)n2)n1
M19-MEL melanoma
  TGI: > 100 µM
LXFL 529 NSCLC
  TGI: 53 µM
XF 498 CNS
  TGI: 26.4 µM
HOP-18 NSCLC
  TGI: > 100 µM
DLD-1 colon
  TGI: > 100 µM
DMS 273 small cell lung
  TGI: 58 µM

## CCOC(=O)/C=C/c1c[nH]c(C(=O)OCC)c1
M19-MEL melanoma
  TGI: > 100 µM
SNB-78 CNS
  TGI: > 100 µM
DMS 114 small cell lung
  TGI: > 100 µM
P388 leukemia
  TGI: > 100 µM
XF 498 CNS
  TGI: > 100 µM
HOP-18 NSCLC
  TGI: > 100 µM
P388/ADR leukemia
  TGI: > 100 µM
SN12K1 renal
  TGI: > 100 µM
DLD-1 colon
  TGI: > 100 µM
DMS 273 small cell lung
  TGI: > 100 µM

## Cc1ccc(S(=O)(=O)c2c3[nH]c4ccccc4nc3n3c2nc2ccccc23)cc1
M19-MEL melanoma
  TGI: > 100 µM
SNB-78 CNS
  TGI: > 100 µM
DMS 114 small cell lung
  TGI: > 100 µM
LXFL 529 NSCLC
  TGI: > 100 µM
XF 498 CNS
  TGI: > 100 µM
DLD-1 colon
  TGI: > 100 µM
DMS 273 small cell lung
  TGI: > 100 µM

## COc1cc(C2c3cc4c(cc3[C@@H](NCCCN(C)C)[C@H]3COC(=O)C23)OCO4)cc(OC)c1O (stereo partly specified)
M19-MEL melanoma
  TGI: 2.17 µM and 3.35 µM
SNB-78 CNS
  GI50: 2.6 µM and 11.6 µM
  TGI: > 37.5 µM
LXFL 529 NSCLC
  TGI: 25.7 µM and > 20 µM
HOP-18 NSCLC
  GI50: 3.78 µM and 1.18 µM
  TGI: > 37.5 µM and 16.3 µM
DLD-1 colon
  GI50: 1.03 µM and 3.78 µM
  TGI: 4.01 µM and > 20 µM
DMS 273 small cell lung
  TGI: 2.06 µM and 2.61 µM

## ClCc1ccc2ccc3ccc(CCl)nc3c2n1
M19-MEL melanoma
  TGI: 3.97 µM
SNB-78 CNS
  TGI: 10.3 µM
DMS 114 small cell lung
  TGI: 4.26 µM
P388 leukemia
  TGI: 7.32 µM
XF 498 CNS
  TGI: 4.45 µM
HOP-18 NSCLC
  TGI: 8.77 µM
P388/ADR leukemia
  TGI: 5.07 µM
SN12K1 renal
  TGI: 4.4 µM
DLD-1 colon
  TGI: 2.89 µM

## CCN(CC)c1cccc2c1C1(O)CCC3(CC21)OCCCCO3 (stereo unspecified)
M19-MEL melanoma
  TGI: > 100 µM
SNB-78 CNS
  TGI: > 100 µM
DMS 114 small cell lung
  TGI: > 100 µM
LXFL 529 NSCLC
  TGI: > 100 µM
HOP-18 NSCLC
  TGI: > 100 µM
DLD-1 colon
  TGI: > 100 µM
DMS 273 small cell lung
  TGI: > 100 µM

## CCCCCCCSCC1C(=O)C23C(O)C1CCC2C12COC3(O)C(O)C1C(C)(C)CCC2O (stereo unspecified)
M19-MEL melanoma
  TGI: 31.6 µM
SNB-78 CNS
  TGI: 47.4 µM
DMS 114 small cell lung
  TGI: 23.1 µM
RXF-631 renal
  TGI: 22 µM
LXFL 529 NSCLC
  TGI: 6.88 µM
XF 498 CNS
  TGI: 33.4 µM
HOP-18 NSCLC
  TGI: 25 µM
DLD-1 colon
  TGI: 30 µM
DMS 273 small cell lung
  TGI: 27.3 µM

## CC[C@](C)(O)C(=O)O[C@H]1C(=O)O[C@@H]2C[C@H]3C(C)=C[C@H](O)[C@@H](O)[C@]3(C)[C@H]3[C@@]4(O)OC[C@]32[C@@H]1[C@@H](C)[C@H]4O
M19-MEL melanoma
  TGI: 45.5 µM
SNB-78 CNS
  TGI: 138 µM
DMS 114 small cell lung
  TGI: 17.6 µM
P388 leukemia
  TGI: 128 µM
XF 498 CNS
  TGI: 66.5 µM
HOP-18 NSCLC
  TGI: 298 µM
P388/ADR leukemia
  TGI: 325 µM
SN12K1 renal
  TGI: 32.1 µM
DLD-1 colon
  TGI: 63.6 µM
DMS 273 small cell lung
  TGI: 127 µM

## N#CC(NNC(=O)c1ccccc1O)c1ccccc1 (stereo unspecified)
M19-MEL melanoma
  TGI: > 100 µM
SNB-78 CNS
  TGI: > 100 µM
DMS 114 small cell lung
  TGI: 4.87 µM
LXFL 529 NSCLC
  TGI: > 100 µM
HOP-18 NSCLC
  TGI: > 100 µM
DLD-1 colon
  TGI: > 100 µM
DMS 273 small cell lung
  TGI: > 100 µM

## C/C(=N\NC(=S)NNC(=S)N(C)c1ccccc1)c1ccccn1
M19-MEL melanoma
  TGI: 7.59 µM
SNB-78 CNS
  TGI: > 100 µM
DMS 114 small cell lung
  TGI: 12.6 µM
LXFL 529 NSCLC
  TGI: > 100 µM
XF 498 CNS
  TGI: > 100 µM
HOP-18 NSCLC
  TGI: 0.732 µM
DLD-1 colon
  TGI: > 100 µM
DMS 273 small cell lung
  TGI: > 100 µM

## COc1ccc(CCc2ccccc2CC(=O)O)cc1
M19-MEL melanoma
  TGI: > 100 µM
SNB-78 CNS
  TGI: > 100 µM
DMS 114 small cell lung
  TGI: > 100 µM
LXFL 529 NSCLC
  TGI: > 100 µM
XF 498 CNS
  TGI: > 100 µM
HOP-18 NSCLC
  TGI: > 100 µM
DLD-1 colon
  TGI: > 100 µM
DMS 273 small cell lung
  TGI: > 100 µM

## CC(=O)c1cccc(NC(=O)C(=O)C(C(=O)c2ccccc2F)C2OC(=O)c3ccccc32)c1 (stereo unspecified)
M19-MEL melanoma
  TGI: > 100 µM
SNB-78 CNS
  TGI: > 100 µM
DMS 114 small cell lung
  TGI: 90 µM
RXF-631 renal
  TGI: > 100 µM
LXFL 529 NSCLC
  TGI: > 100 µM
XF 498 CNS
  TGI: > 100 µM
DLD-1 colon
  TGI: > 100 µM
DMS 273 small cell lung
  TGI: > 100 µM
